Results published in patent US20150189876A1, “CROP ENHANCEMENT COMPOSITIONS” (Syngenta Participations AG, priority 2012, published 2015).
Like-named read-outs stand apart in the source and are kept apart here.

What was measured:
[1] = tested on: Tetranychus urticae; test: Leaf disc spray test, 24-well plate, mortality after 6 days (Table 2.2); type: in vivo
Experimental: 2.3 Tetranychus urticae (Two-Spotted Spider Mite)
Bean leaf discs were placed on agar in 24-well microtiter plates sprayed with test solutions. After drying, the leaf discs were infested with a mite population of mixed ages. After an incubation period of 6 days, samples were checked for larval mortality, and adult mortality.

[2] = tested on: Heliothis virescens; test: Egg and larval mortality on artificial diet, 24-well plate, 4 days; type: in vivo
Experimental: 2.1 Heliothis virescens (Tobacco Budworm)
Eggs (0-24 h old) were placed in a 24-well microtiter plate on artificial diet and treated with test solutions by pipetting. After an incubation period of 4 days, samples were checked for egg mortality and larval mortality.

[3] = tested on: Aspergillus parasiticus; test: In vitro antifungal checkerboard test, fungal growth by OD450 in 96-well microtiter plates; type: cell-based; details: for Azoxystrobin Inhibition (%): Azoxystrobin alone
Experimental: (§1) In vitro antifungal activity of fungicides in combination with a compound of formula (II) was evaluated in 96 well-microtiter plate system using the checkerboard method (Vitale, R. G, Afeltra, J., and Dannaoui, E. 2005: Methods in Molecular Medicine, Vol. 118, Antifungal Agents: Methods and Protocols p. 143-152). Active ingredients were two-fold serially diluted in DMSO and mixed with double strength Potato Dextrose Broth or Alkyl Ester agar (AE medium, Miguez, M., Reeve, C., Wood, P. M. and Hollomon, D. W. (2004), Alternative oxidase reduces the sensitivity of Mycosphaerella graminicola to QOI fungicides. Pest. Manag. Sci., 60: 3-7) before filled into wells according to the checkerboard format. Each dilution well containing was inoculated with fungal spore suspension to receive a final concentration of 1×10^4 spores/ml per well. Wells of last column containing only medium and spore suspension were included as control. Three replicated microtiter plates were used in each test system. Fungal growth in each well of the micro-plates was assessed spectrophotometrically at OD450 nm (16-scan point spectrophotometer, Tecan) after inoculation [OD(0 h)=background value] and after an incubation period of 72 h [OD(72 h)] at 25° C. in the dark. Fungal growth was described as increase in OD450 nm during the time interval from 0 h to 72 h [OD(72 h)-OD(0 h)]. Fungal growth in each well of the micro-plates was assessed spectrophotometrically at OD450 nm (16-scan point spectrophotometer, Tecan) after inoculation and after an incubation period of 3-6 days at 25° C. in the dark. Fungal growth was described as increase in OD450 nm during incubation period.

[4] = tested on: Myzus persicae; test: Leaf disc spray test, 24-well plate, mortality after 6 days (Table 2.3); type: in vivo
Experimental: 2.2 Myzus persicae (Green Peach Aphid)
Sunflower leaf discs were placed on agar in a 24-well microtiter plate and sprayed with test solutions. After drying, the leaf discs were infested with an aphid population of mixed ages. After an incubation period of 6 days, samples were checked for mortality.

[5] = tested on: Pyrenophora teres; test: In vitro antifungal checkerboard test, fungal growth by OD450 in 96-well microtiter plates; type: cell-based; details: for Sedaxane Inhibition (%): Sedaxane alone
Experimental: as §1

[6] = tested on: Fusarium culmorum; test: as above; type: cell-based
Experimental: as §1

[7] = tested on: Fusarium culmorum; Aspergillus parasiticus; Pyrenophora teres; test: In vitro antifungal checkerboard test, overall statement on Tables 1.1 to 1.5; type: cell-based
Experimental: as §1

[8] = Formula (II) 0.000003 ppm alone
[9] = Compound II alone, read-out: Compound II Inhibition (%)
[10] = Prothioconazole alone, read-out: Prothioconazole Inhibition (%)
[11] = Tebuconazole alone, read-out: Tebuconazole Inhibition (%)
[12] = Thiabendazole alone, read-out: Thiabendazole Inhibition (%)

## Cc1c(F)c(F)c(COC(=O)[C@@H]2[C@H](/C=C(\Cl)C(F)(F)F)C2(C)C)c(F)c1F (racemic) [Tefluthrin, tefluthrin, reference compound]
[1]; Tefluthrin 100 ppm alone
  % control (average of 2 reps): 90%
[2]; Tefluthrin 100 ppm alone
  % control (average of 2 reps): 95%

## CO/C=C(/C(=O)OC)c1ccccc1Oc1cc(Oc2ccccc2C#N)ncn1 [Azoxystrobin, azoxystrobin, reference compound]
[3]; 8 ppm
  Azoxystrobin Inhibition (%): 82.8%
[3]; 16 ppm
  Azoxystrobin Inhibition (%): 84.5%
[3]; 32 ppm
  Azoxystrobin Inhibition (%): 78.5%
[3]; 64 ppm
  Azoxystrobin Inhibition (%): 60.8%

## CNC(=O)c1cc(Cl)cc(C)c1NC(=O)c1cc(Br)nn1-c1ncccc1Cl [Chlorantraniliprole, chlorantraniliprole, reference compound]
[1]; Chlorantraniliprole 400 ppm alone
  % control (average of 2 reps): 95%
[2]; Chlorantraniliprole 0.4 ppm alone
  % control (average of 2 reps): 90%

## CN/C(=N\[N+](=O)[O-])NCc1cnc(Cl)s1 [Clothianidin, clothianidin, reference compound]
[2]; Clothianidin 50 ppm alone
  % control (average of 2 reps): 100%
[4]; Clothianidin 3 ppm alone
  % control (average of 2 reps): 100%

## CC1=C[C@H](O/C=C2/C(=O)NC3c4ccccc4CC23)OC1=O (some centres unmarked) [Compound II]
[1]; [8]
  % control (average of 2 reps): 0%
[1]; Formula (II) 0.0003 ppm alone
  % control (average of 2 reps): 0%
[1]; Formula (II) 0.03 ppm alone
  % control (average of 2 reps): 0%
[1]; Formula (II) 1 ppm alone
  % control (average of 2 reps): 0%
[1]; mixtures of Table 2.2
  antagonism of the activity of the insecticides: did not antagonise the activity of any of the insecticides
[5]; Pyrenophora teres, Compound II alone, 0.25 ppm
  inhibition at 0.25 ppm: 0%
[5]; Pyrenophora teres, Compound II alone, 0.5 ppm
  inhibition at 0.5 ppm: 0%
[5]; Pyrenophora teres, Compound II alone, 1 ppm
  inhibition at 1 ppm: 0%
[5]; Pyrenophora teres, Compound II alone, 2 ppm
  inhibition at 2 ppm: 0%
[5]; Pyrenophora teres, Compound II alone, 4 ppm
  inhibition at 4 ppm: 0%
[5]; Pyrenophora teres, Compound II alone, 8 ppm
  inhibition at 8 ppm: 0%
[5]; Pyrenophora teres, Compound II alone, 16 ppm
  inhibition at 16 ppm: 0%
[5]; Pyrenophora teres, Compound II alone, 32 ppm
  inhibition at 32 ppm: 0%
[5]; Pyrenophora teres, Compound II alone, 64 ppm
  inhibition at 64 ppm: 0%
[5]; Pyrenophora teres, Compound II alone, 128 ppm
  inhibition at 128 ppm: 3.9%
[3]; Aspergillus parasiticus, Compound II alone, 0.125 ppm
  inhibition at 0.125 ppm: 8.7%
[3]; Aspergillus parasiticus, Compound II alone, 0.25 ppm
  inhibition at 0.25 ppm: 11.3%
[3]; Aspergillus parasiticus, Compound II alone, 0.5 ppm
  inhibition at 0.5 ppm: 9.3%
[3]; Aspergillus parasiticus, Compound II alone, 1 ppm
  inhibition at 1 ppm: 9.6%
[3]; Aspergillus parasiticus, Compound II alone, 2 ppm
  inhibition at 2 ppm: 0.5%
[3]; Aspergillus parasiticus, Compound II alone, 4 ppm
  inhibition at 4 ppm: 5.4%
[3]; Aspergillus parasiticus, Compound II alone, 8 ppm
  inhibition at 8 ppm: 20.5%
[3]; Aspergillus parasiticus, Compound II alone, 16 ppm
  inhibition at 16 ppm: 22.1%
[3]; Aspergillus parasiticus, Compound II alone, 32 ppm
  inhibition at 32 ppm: 2%
[3]; Aspergillus parasiticus, Compound II alone, 64 ppm
  inhibition at 64 ppm: 11.3%
[6]; Compound II alone, 0.0625 ppm
  inhibition at 0.0625 ppm: 1.8%
[6]; Compound II alone, 0.125 ppm
  inhibition at 0.125 ppm: 6.5%
[6]; Compound II alone, 0.25 ppm
  inhibition at 0.25 ppm: 3.2%
[6]; Compound II alone, 0.5 ppm
  inhibition at 0.5 ppm: 1.2%
[6]; Compound II alone, 1 ppm
  inhibition at 1 ppm: 0%
[6]; Compound II alone, 2 ppm
  inhibition at 2 ppm: 2.5%
[6]; [9]
  inhibition at 4 ppm: 1.3%
  inhibition at 8 ppm: 0%
[6]; Compound II alone, 16 ppm
  inhibition at 16 ppm: 0%
[6]; Compound II alone, 32 ppm
  inhibition at 32 ppm: 0%
[2]; [8]
  % control (average of 2 reps): 0%
[2]; Formula (II) 0.0003 ppm alone
  % control (average of 2 reps): 0%
[2]; Formula (II) 0.03 ppm alone
  % control (average of 2 reps): 0%
[2]; Formula (II) 1 ppm alone
  % control (average of 2 reps): 0%
[2]; mixtures of Table 2.1
  antagonism of the activity of the insecticides: did not antagonise the activity of any of the insecticides
[4]; [8]
  % control (average of 2 reps): 0%
[4]; Formula (II) 0.0003 ppm alone
  % control (average of 2 reps): 0%
[4]; Formula (II) 0.03 ppm alone
  % control (average of 2 reps): 0%
[4]; Formula (II) 1 ppm alone
  % control (average of 2 reps): 0%
[4]; mixtures of Table 2.3
  antagonism of the activity of the insecticides: did not antagonise the activity of any of the insecticides
[7]; at some rates
  synergistic effect on the activity of fungicides: provides a synergistic effect on the activity of fungicides at some rates
[7]; in general, Tables 1.1 to 1.5
  fungicidal activity of the compound of formula (II) alone: did not cause any, or only very low levels of fungicidal activity
[7]; in general, mixtures of Tables 1.1 to 1.5
  antagonism of the activity of the fungicides tested: did not antagonise the activity of any of the fungicides tested

## CNC(=O)c1cc(C#N)cc(C)c1NC(=O)c1cc(Br)nn1-c1ncccc1Cl [Cyantraniliprole, cyantraniliprole, reference compound]
[1]; Cyantraniliprole 100 ppm alone
  % control (average of 2 reps): 95%
[2]; Cyantraniliprole 0.8 ppm alone
  % control (average of 2 reps): 100%

## O=[N+]([O-])NC1=NCCN1Cc1ccc(Cl)nc1 [Imidacloprid, imidacloprid, reference compound]
[2]; Imidacloprid 200 ppm alone
  % control (average of 2 reps): 100%
[4]; Imidacloprid 1.6 ppm alone
  % control (average of 2 reps): 100%

## OC(Cc1ccccc1Cl)(Cn1nc[nH]c1=S)C1(Cl)CC1 (centres unmarked) [Prothioconazole, prothioconazole, reference compound]
[6]; [10]
  inhibition at 64 ppm: 97.3%
  inhibition at 128 ppm: 95%

## Cn1cc(C(=O)Nc2ccccc2C2CC2C2CC2)c(C(F)F)n1 (centres unmarked) [Sedaxane, sedaxane, reference compound]
[5]; 4 ppm
  Sedaxane Inhibition (%): 62.5%
[5]; 8 ppm
  Sedaxane Inhibition (%): 81.2%
[5]; 16 ppm
  Sedaxane Inhibition (%): 82.1%
[5]; 32 ppm
  Sedaxane Inhibition (%): 85.9%
[5]; 64 ppm
  Sedaxane Inhibition (%): 88.1%

## CC(c1ccc(C(F)(F)F)nc1)S(C)(=O)=NC#N (centres unmarked) [Sulfoxaflor, sulfoxaflor, reference compound]
[4]; Sulfoxaflor 0.8 ppm alone
  % control (average of 2 reps): 100%

## CC(C)(C)C(O)(CCc1ccc(Cl)cc1)Cn1cncn1 (centres unmarked) [Tebuconazole, tebuconazole, reference compound]
[6]; [11]
  inhibition at 4 ppm: 97.1%
  inhibition at 8 ppm: 90.1%

## c1ccc2[nH]c(-c3cscn3)nc2c1 [Thiabendazole, thiabendazole, reference compound]
[6]; [12]
  inhibition at 64 ppm: 98.3%
  inhibition at 128 ppm: 99.4%

## CN1COCN(Cc2cnc(Cl)s2)/C1=N\[N+](=O)[O-] [Thiamethoxam, thiamethoxam, reference compound]
[4]; Thiamethoxam 3 ppm alone
  % control (average of 2 reps): 100%

## abamectin [reference compound]
[1]; Abamectin 0.2 ppm alone
  % control (average of 2 reps): 100%
[2]; Abamectin 3 ppm alone
  % control (average of 2 reps): 95%
